Reference: patent US5789431A, “Naphthoquinone antitumor compound and method” (The University of North Carolina at Chapel Hill, priority 1996, dated 1998)

Columns and labels:
MOLT-4 = test: in vitro leukemia cell growth inhibition (NCI screen)
TK-10 = test: in vitro renal cancer cell growth inhibition (NCI screen)
U 251 = test: in vitro CNS cancer cell growth inhibition (NCI screen)
RXF-393 = test: in vitro renal cancer cell growth inhibition (NCI screen)
SNB-75 = test: in vitro CNS cancer cell growth inhibition (NCI screen)
M19-MEL = test: in vitro melanoma cell growth inhibition (NCI screen)
HCT-116 = test: in vitro colon cancer cell growth inhibition (NCI screen)
UO-31 = test: in vitro renal cancer cell growth inhibition (NCI screen)
XF-498 = test: in vitro CNS cancer cell growth inhibition (NCI screen)
HL-60(TB) = test: in vitro leukemia cell growth inhibition (NCI screen)
K-562 = test: as above
HCT-15 = test: in vitro colon cancer cell growth inhibition (NCI screen)
OVCAR-3 = test: in vitro ovarian cancer cell growth inhibition (NCI screen)
COLO-205 = test: in vitro colon cancer cell growth inhibition (NCI screen)
UACC-62 = test: in vitro melanoma cell growth inhibition (NCI screen)
ACHN = test: in vitro renal cancer cell growth inhibition (NCI screen)
SK-MEL-5 = test: in vitro melanoma cell growth inhibition (NCI screen)
MALME-3M = test: as above
SF-539 = test: in vitro CNS cancer cell growth inhibition (NCI screen)
CCRF-CEM = test: in vitro leukemia cell growth inhibition (NCI screen)
NCI-H522 = test: in vitro non-small cell lung cancer cell growth inhibition (NCI screen)
UACC-257 = test: in vitro melanoma cell growth inhibition (NCI screen)
SR = test: in vitro leukemia cell growth inhibition (NCI screen)
SK-MEL-2 = test: in vitro melanoma cell growth inhibition (NCI screen)
LOX1MVI = test: as above
NCI-H23 = test: in vitro non-small cell lung cancer cell growth inhibition (NCI screen)
OVCAR-8 = test: in vitro ovarian cancer cell growth inhibition (NCI screen)
HOP-92 = test: in vitro non-small cell lung cancer cell growth inhibition (NCI screen)
human tumor cell lines = format: cell-based; details: Homo sapiens; cancer cell panel, general / most cell lines; read-out: logGI50 values in the cancer cell line panel (converted)
RPMI-8226 = test: in vitro leukemia cell growth inhibition (NCI screen)
IGROV1 = test: in vitro ovarian cancer cell growth inhibition (NCI screen)
SW 620 = test: in vitro colon cancer cell growth inhibition (NCI screen)
DLD-1 = test: as above
SF-268 = test: in vitro CNS cancer cell growth inhibition (NCI screen)
KM 12 = test: in vitro colon cancer cell growth inhibition (NCI screen)
MDA-N = test: in vitro breast cancer cell growth inhibition (NCI screen)
MCF-7 = test: as above
M14 = test: in vitro melanoma cell growth inhibition (NCI screen)
OVCAR-4 = test: in vitro ovarian cancer cell growth inhibition (NCI screen); details: OVACR-4
MDA-MB-435 = test: in vitro breast cancer cell growth inhibition (NCI screen)
T-47D = test: as above
NCI-H266 = test: in vitro non-small cell lung cancer cell growth inhibition (NCI screen)
PC-3 = test: in vitro prostate cancer cell growth inhibition (NCI screen)
HT 29 = test: in vitro colon cancer cell growth inhibition (NCI screen)
SK-MEL-28 = test: in vitro melanoma cell growth inhibition (NCI screen)

Structure (SMILES) | cytotoxicity log GI50 (MOLT-4) [M] | cytotoxicity log GI50 (RXF-393) [M] | cytotoxicity log GI50 (SNB-75) [M] | cytotoxicity log GI50 (M19-MEL) [M] | cytotoxicity log GI50 (HCT-116) [M] | cytotoxicity log GI50 (UO-31) [M] | cytotoxicity log GI50 (XF-498) [M] | cytotoxicity log GI50 (HL-60(TB)) [M] | cytotoxicity log GI50 (K-562) [M] | cytotoxicity log GI50 (HCT-15) [M] | cytotoxicity log GI50 (OVCAR-3) [M] | cytotoxicity log GI50 (COLO-205) [M] | cytotoxicity log GI50 (UACC-62) [M] | cytotoxicity log GI50 (ACHN) [M] | cytotoxicity log GI50 (SK-MEL-5) [M] | cytotoxicity log GI50 (MALME-3M) [M] | cytotoxicity log GI50 (SF-539) [M] | cytotoxicity log GI50 (CCRF-CEM) [M] | cytotoxicity log GI50 (NCI-H522) [M] | cytotoxicity log GI50 (UACC-257) [M] | also measured
CCC(c1ccccc1F)c1nc2c(n1CC)C(=O)c1ccccc1C2=O (centres unmarked) [Compound 64] | -4.62 | -5.53 | -4.60 |  |  |  |  |  |  |  |  |  |  |  |  |  |  |  |  |  | cytotoxicity log GI50 (TK-10): -5.49 M; cytotoxicity log GI50 (U 251): -5.07 M
CC(=O)NC1=C(NCC(C)(C)C)C(=O)c2ccccc2C1=O [Compound 38] |  | -4.43 |  | -4.68 | -4.47 | -4.33 | -4.59 | -4.49 | -4.42 | -4.26 | -4.26 | -4.41 | -4.41 | -4.57 | -4.40 | -4.46 | -4.48 | -4.42 | -4.72 | -4.30 | 
CCC(C)(C)NC1=C(NC(C)=O)C(=O)c2ccccc2C1=O [Compound 36] | -4.86 | -4.60 |  | -4.88 | -4.75 | -4.56 | -4.84 | -4.78 | -4.68 |  |  |  | -4.60 | -4.82 | -4.87 | -4.54 | -4.61 | -4.77 | -4.99 | -4.69 | cytotoxicity log GI50 (SR): -4.50 M; cytotoxicity log GI50 (SK-MEL-2): -4.68 M; cytotoxicity log GI50 (LOX1MVI): -4.53 M; cytotoxicity log GI50 (NCI-H23): -4.72 M
O=C(Cc1ccc(F)cc1)NC1=C(Cl)C(=O)c2ccccc2C1=O [Compound 2j] |  | -5.75 | -5.66 |  |  |  | -5.71 | -7.56 |  | -5.64 |  |  |  | -5.70 |  | -5.67 | -5.65 |  |  |  | cytotoxicity log GI50 (SR): -6.88 M; cytotoxicity log GI50 (OVCAR-8): -5.71 M; cytotoxicity log GI50 (HOP-92): -5.72 M; GI50 (human tumor cell lines): 25.1 to 2510 nM; cytotoxicity log GI50 (RPMI-8226): -7.07 M; cytotoxicity log GI50 (NCI-H23): -5.89 M; cytotoxicity log GI50 (IGROV1): -5.73 M; cytotoxicity log GI50 (SW 620): -5.68 M; cytotoxicity log GI50 (DLD-1): -5.62 M
O=C(O)CCCc1nc2c(n1-c1ccccc1)C(=O)c1ccccc1C2=O [Compound 58] |  |  | -4.36 |  | -4.31 |  |  | -4.43 |  |  | -4.47 |  | -4.48 |  |  | -4.67 |  | -4.39 | -4.85 | -4.48 | cytotoxicity log GI50 (SF-268): -4.42 M; cytotoxicity log GI50 (KM 12): -4.50 M; cytotoxicity log GI50 (MDA-N): -4.36 M; cytotoxicity log GI50 (MCF-7): -4.49 M; cytotoxicity log GI50 (RPMI-8226): -4.39 M; cytotoxicity log GI50 (M14): -4.72 M; cytotoxicity log GI50 (OVCAR-4): -4.62 M
COC(=O)CCCC(=O)NC1=C(Nc2ccccc2)C(=O)c2ccccc2C1=O [Compound 52] |  |  |  |  |  |  |  |  |  |  | -4.90 |  | -5.49 |  |  | -5.45 |  |  |  |  | cytotoxicity log GI50 (KM 12): -5.28 M; cytotoxicity log GI50 (MDA-N): -5.41 M; cytotoxicity log GI50 (MDA-MB-435): -5.26 M; cytotoxicity log GI50 (NCI-H23): -4.97 M
O=C(NC1=C(Cl)C(=O)c2ccccc2C1=O)c1ccc(F)cc1 [Compound 2f] | -5.65 | -5.90 |  |  | -6.34 |  |  | -6.47 | -6.04 | -6.27 |  |  | -6.55 | -6.03 |  | -5.82 |  | -6.10 | -6.34 | -5.71 | cytotoxicity log GI50 (T-47D): -5.72 M; cytotoxicity log GI50 (HOP-92): -5.79 M; GI50 (human tumor cell lines): ~1000 nM; cytotoxicity log GI50 (U 251): -5.73 M; cytotoxicity log GI50 (IGROV1): -5.77 M; cytotoxicity log GI50 (SW 620): -6.11 M; cytotoxicity log GI50 (NCI-H266): -5.96 M; cytotoxicity log GI50 (PC-3): -5.95 M
CCCC(=O)NC1=C(NCC)C(=O)c2ccccc2C1=O [Compound 46] |  | -4.32 |  |  | -4.36 |  |  | -4.39 | -4.29 | -4.40 | -4.47 | -4.44 |  |  |  | -4.41 |  |  | -4.59 | -4.40 | cytotoxicity log GI50 (KM 12): -4.28 M; cytotoxicity log GI50 (MDA-N): -4.68 M; cytotoxicity log GI50 (MDA-MB-435): -4.60 M; cytotoxicity log GI50 (HT 29): -4.36 M; cytotoxicity log GI50 (SW 620): -4.48 M; cytotoxicity log GI50 (PC-3): -4.39 M
CC(=O)NC1=C(NCc2ccc(Cl)cc2)C(=O)c2ccccc2C1=O [Compound 42] | -5.62 | -5.37 |  | -5.28 | -5.51 | -5.29 | -5.84 | -5.86 | -5.61 | -5.25 |  | -5.27 | -5.58 | -5.74 | -5.26 |  | -5.36 |  | -6.01 | -5.21 | cytotoxicity log GI50 (SK-MEL-2): -5.25 M; cytotoxicity log GI50 (SK-MEL-28): -5.26 M
